The values that follow come from publication doi:10.1101/2025.04.18.649305v1 (biorxiv, 2025).

In the assay the target is NAMPT (recombinant human) (Homo sapiens, UniProt P43490). Briefly: biolayer interferometry. Type of assay: binding. (In general: Biolayer interferometry detects binding as a change in optical thickness at a sensor tip.)

Structures are written as SMILES. pKd: −log10 of the molar value.

Sequence of NAMPT (recombinant human) (P43490 whole entry): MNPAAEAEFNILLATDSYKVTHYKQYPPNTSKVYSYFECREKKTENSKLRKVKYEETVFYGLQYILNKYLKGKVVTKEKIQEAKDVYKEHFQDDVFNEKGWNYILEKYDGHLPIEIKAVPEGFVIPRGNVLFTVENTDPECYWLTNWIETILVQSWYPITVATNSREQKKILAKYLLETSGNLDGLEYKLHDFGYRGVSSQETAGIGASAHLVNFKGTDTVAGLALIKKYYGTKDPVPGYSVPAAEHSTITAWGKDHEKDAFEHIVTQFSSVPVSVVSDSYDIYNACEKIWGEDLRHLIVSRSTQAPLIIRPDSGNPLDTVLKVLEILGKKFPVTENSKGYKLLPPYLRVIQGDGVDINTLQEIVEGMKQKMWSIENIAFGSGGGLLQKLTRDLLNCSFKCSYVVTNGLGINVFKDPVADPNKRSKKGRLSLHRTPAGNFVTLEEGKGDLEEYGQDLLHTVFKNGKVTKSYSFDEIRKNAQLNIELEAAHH

As a reminder, the pKd is the negative decadic logarithm of the Kd, by convention in mol/L. As for `O=C(CC(C(=O)O)c1c[nH]c2ccccc12)c1ccc(F)cc1F` (racemic) [MA-5], the pKd was 3.98.
